In assay [1] the test system is Mus musculus. Kind of assay: Anticonvulsant activity against audiogenic clonus seizure 30 min after intraperitoneal administration (3.3-200 umol/kg) in DBA/2 mice. It is filed as functional. The settings on record: ip, 0.5 h.
Assay [2] has as its system Mus musculus. As to the kind of experiment: Anticonvulsant activity against audiogenic tonus seizure 30 min after intraperitoneal administration (3.3-200 umol/kg) in DBA/2 mice. It is filed as functional. The settings on record: ip, 0.5 h.
The target in assay [3] is Glutamate receptor ionotropic, AMPA (Rattus norvegicus, UniProt P19490+P19491+P19492+P19493). Kind of assay: Ability to displace [3H]CP-526427 (3 nM) from binding site of the Ionotropic glutamate receptor AMPA in rat forebrain membrane. The class given is cell membranes.
Assay [4] concerns Mus musculus. As to the kind of experiment: Anticonvulsant activity against audiogenic clonus seizure 15 min after intraperitoneal administration (3.3-200 umol/kg) in DBA/2 mice. The class given is functional. The note with it: ip, 0.25 h.

The values that follow come from ChEMBL document CHEMBL1136491, “1-aryl-6,7-methylenedioxy-3H-quinazolin-4-ones as anticonvulsant agents” (Bioorg Med Chem Lett, 2003).

For `Oc1nc(-c2ccc(F)cc2)nc2cc3c(cc12)OCO3`, the median effective dose (ED50) came to 32.7 µmol/kg in assay [1] and 27.8 µmol/kg in assay [2]. The IC50 in assay [3] is more than 100 µM.
The corresponding values for `Oc1nc(-c2ccc(Cl)cc2)nc2cc3c(cc12)OCO3` are 36.5 µmol/kg, 21.6 µmol/kg and more than 100 µM.
Consider `Oc1nc(-c2ccc(Br)cc2)nc2cc3c(cc12)OCO3`, for which the ED50 in assay [1] is 68.3 µmol/kg; in assay [2], 36.6 µmol/kg.
In the case of `Nc1ccc(-c2nc(O)c3cc4c(cc3n2)OCO4)cc1`, the values for the ED50 in assay [1] and in assay [2] were 27.8 µmol/kg and 17.7 µmol/kg, respectively. The compound also had a concentration for half-maximal inhibition (IC50) in assay [3] of more than 100 µM.
On to `Nc1ccc(-c2nc(S)c3cc4c(cc3n2)OCO4)cc1`, for which the results for the ED50 in assay [1], in assay [4] and in assay [2] were 37.8 µmol/kg, 79.4 µmol/kg and 17.9 µmol/kg, respectively.
As to `Oc1nc(-c2ccccc2)nc2cc3c(cc12)OCO3`, the results for the ED50 in assay [1] and in assay [2] were 59.5 µmol/kg and 46.1 µmol/kg, respectively. The same compound registered an IC50 in assay [3] of more than 100 µM.
Take `O=C1Cc2cc3c(cc2C(c2ccc(F)cc2)=NN1)OCO3`: the values for the ED50 in assay [1] and in assay [2] were 89.8 µmol/kg and 63.8 µmol/kg, respectively.
Compound `Nc1ccc(-c2nnc(O)c3cc4c(cc23)OCO4)cc1` returned a concentration for half-maximal inhibition (IC50) in assay [3] of more than 100 µM.
